Here are results for 30 compounds from patent US4623662A, “Antiatherosclerotic ureas and thioureas” (American Cyanamid Company, priority 1985, dated 1986).

Like-named read-outs stand apart in the source and are kept apart here.

In the assay the test system is cholesterol absorption. Kind of assay: Inhibition of cholesterol absorption in rats fed 1% cholesterol:0.5% cholic acid diet. The conditions noted are these: rat, 2 weeks; for response vs control in vivo at 0.001 % / response vs control in vivo at 0.003 % / response vs control in vivo at 0.03 % / response vs control in vivo at 0.01 %: po, 336 h; for response vs control in vivo at 0.001 %: dose .001% of the diet; for response vs control in vivo at 0.03 %: dose .03% of the diet; for response vs control in vivo at 0.01 %: dose .01% of the diet. It is filed as in vivo, male Sprague-Dawley rats. As for the experimental part: Inhibition of cholesterol absorption was determined by feeding male Sprague-Dawley rats, weighing 150-170 g, a 1% cholesterol:0.5% cholic acid diet for 2 weeks. The diet also contained compounds being tested at a dose of 0.001, 0.003, 0.01, or 0.03% of the diet. Control rats were fed the same diet without any compound. At the end of the test, the rats were sacrificed by decapitation. Blood was collected, centrifuged at […] for 10 minutes at 4° C.; and the serum was then analyzed for cholesterol and triglycerides enzymatically by the method of Trinder, P., Analyst, 77, 321 (1952) on a Centrifichem 400 analyzer. Livers were removed, a 0.4 g sample was taken from the center of the large lobe, and the sample was subjected to saponification using 25% saturated potassium hydroxide in ethanol. The resulting neutral sterols were extracted with petroleum ether and the extract analyzed for cholesterol. The effectiveness of the compound in inhibiting cholesterol absorption was measured by the lowering of either serum cholesterol or liver cholesterol relative the values for control rats.
Compounds which produced statistically significant inhibition of cholesterol absorption are considered to be active. Liver sterol (LS) and serum sterol (SS) values are expressed as a percentage of control values.

[1] abbreviates: read-out: LS (liver sterol), percentage of control values.
Setting [2] is: read-out: SS (serum sterol), percentage of control values.
Where [3] appears, read: dose .003% of the diet, read-out: LS (liver sterol), percentage of control values.
[4] abbreviates: dose .003% of the diet, read-out: SS (serum sterol), percentage of control values.

Regarding `CCCCCCCN(Cc1ccc(CC(CC)CC)cc1)C(=O)Nc1c(C)cc(Cl)cc1C` [1-(n-Heptyl)-1-[4-(2-ethylbutyl)benzyl]-3-(4-chloro-2,6-dimethylphenyl)urea], the response vs control in vivo at 0.001 % turned out to be 94% under setting [1] and 62% under setting [2].
Turning to `CCCCCCCN(Cc1ccc(CCC(C)CC)cc1)C(=O)Nc1c(C)cc(Cl)cc1C` (stereo not drawn) [1-(n-Heptyl)-1-[4-(3-methylpentyl)benzyl]-3-(4-chloro-2,6-dimethylphenyl)urea], the response vs control in vivo at 0.003 % under setting [3] stood at 45% and the response vs control in vivo at 0.003 % under setting [4] turned out to be 38%.
For the compound “1-(n-Heptyl)-1-[4-(1,5-dimethylhexyl)benzyl]-3-(2,4,6-trifluoromethylphenyl)urea”, under “dose .003% of the diet”, the “LS (liver sterol), percentage of control values” is given as 65 percentage of control values and the “SS (serum sterol), percentage of control values” was 57 percentage of control values.
For `CCCCCCCN(Cc1ccc(C(C)CCCC(C)C)cc1)C(=O)Nc1c(C)cc(Cl)cc1C` (stereo not drawn) [1-(n-Heptyl)-1-[4-(1,5-dimethylhexyl)benzyl]-3-(4-chloro-2,6-dimethylphenyl)urea], the response vs control in vivo at 0.001 % was 100% under setting [1] and 94% under setting [2].
With `CC(C)(C)CCN(Cc1ccc(Cl)cc1)C(=O)Nc1ccc(C(F)(F)F)cc1` [1-(3,3-Dimethylbutyl)-1-(4-chlorobenzyl)-3-(4-trifluoromethylphenyl)urea], the response vs control in vivo at 0.03 % under setting [1] was found to be 70% and the response vs control in vivo at 0.03 % under setting [2] is 85%.
As to `CCCCCCCN(Cc1ccc(CCS(=O)(=O)C(C)C)cc1)C(=O)Nc1ccc(F)cc1F` [1-(n-Heptyl)-1-[4-(2-isopropylsulfonylethyl)benzyl]-3-(2,4-difluorophenyl)urea], the response vs control in vivo at 0.003 % came out at 68% under setting [3] and 94% under setting [4].
The matching figures for `CCCCCCCN(Cc1ccc(CC(C)CCC)cc1)C(=O)Nc1ccc(F)cc1F` (stereo not drawn) [1-(n-Heptyl)-1-[4-(2-methylpentyl)benzyl]-3-(2,4-difluorophenyl)urea]: 72% and 53%.
In the case of `CCCCCCCN(Cc1ccc(CCCC)cc1)C(=O)Nc1ccc(C(F)(F)F)cc1` [1-(n-Heptyl)-1-[4-(n-butyl)benzyl]-3-(4-trifluoromethylphenyl)urea], the response vs control in vivo at 0.03 % reads like this: under setting [1], 88%; under setting [2], 79%.
Turning to `CCCCCCCN(Cc1ccc(CC(C)C(C)CC)cc1)C(=O)Nc1c(F)cc(F)cc1F` (stereo not drawn) [1-(n-Heptyl)-1-[4-(2,3-dimethylpentyl)benzyl]-3-(2,4,6-trifluorophenyl)urea], the response vs control in vivo at 0.01 % runs as follows: under setting [1], 31%; under setting [2], 33%.
For `CCCCCCCN(Cc1ccc(CC(C)(C)C)cc1)C(=O)Nc1c(F)cc(F)cc1F` [1-(n-Heptyl)-1-[4-(2,2-dimethylpropyl)phenylmethyl]-3-(2,4,6-trifluorophenyl)urea], the response vs control in vivo at 0.003 % amounted to 55% under setting [3] and 38% under setting [4].
`CCCCc1ccc(CN(CCC(C)(C)C)C(=O)Nc2ccc(C(F)(F)F)cc2)cc1` [1-(3,3-Dimethylbutyl)-1-[4-(n-butyl)benzyl]-3-(4-trifluoromethylphenyl)urea]: the response vs control in vivo at 0.03 % is, setting by setting: under setting [1], 86%; under setting [2], 100%.
`CCCCCCCN(Cc1ccc(CCO)cc1)C(=O)Nc1ccc(F)cc1F` [1-(n-Heptyl)-1-[4-(2-hydroxyethyl)benzyl]-3-(2,4-difluorophenyl)urea]: the response vs control in vivo at 0.003 % runs as follows: under setting [3], 59%; under setting [4], 52%.
For `CCCCCCCN(Cc1ccc(CCCCSC(C)C)cc1)C(=O)Nc1c(C)cc(Cl)cc1C` [1-(n-Heptyl)-1-[4-(4-isopropylthiobutyl)benzyl]-3-(4-chloro-2,6-dimethylphenyl)urea], the response vs control in vivo at 0.01 % was 45% under setting [1] and 49% under setting [2].
On to `CCCCCCCN(Cc1ccc(CC(CC)CCCC)cc1)C(=O)Nc1c(F)cc(F)cc1F` (stereo not drawn) [1-(n-Heptyl)-1-[4-(2-ethylhexyl)benzyl]-3-(2,4,6-trifluorophenyl)urea], for which the response vs control in vivo at 0.001 % under setting [1] worked out at 87% and the response vs control in vivo at 0.001 % under setting [2] was found to be 82%.
The matching figures for `CCCCCCCN(Cc1ccc(CC(CC)CCCC)cc1)C(=O)Nc1c(C)cc(Cl)cc1C` (stereo not drawn) [1-(n-Heptyl)-1-[4-(2-ethylhexyl)benzyl]-3-(4-chloro-2,6-dimethylphenyl)urea]: 87% and 83%.
The corresponding values for `CC(C)CCCCN(Cc1ccc(CCC(C)C)cc1)C(=O)Nc1c(F)cc(F)cc1F` [1-(Isoheptyl)-1-[4-(isopentyl)benzyl]-3-(2,4,6-trifluorophenyl)urea] are 45% and 33%.
As for `CCCCCCCN(Cc1ccc(CCS(=O)(=O)C(C)C)cc1)C(=O)Nc1c(C)cc(Cl)cc1C` [1-(n-Heptyl)-1-[4-(2-isopropylsulfonylethyl)benzyl]-3-(4-chloro-2,6-dimethylphenyl)urea], the response vs control in vivo at 0.003 % runs as follows: under setting [3], 54%; under setting [4], 57%.
For the compound `CCCCCCCN(Cc1ccc(CC(C)CCC)cc1)C(=O)Nc1c(C)cc(Cl)cc1C` (stereo not drawn) [1-(n-Heptyl)-1-[4-(2-methylpentyl)benzyl]-3-(4-chloro-2,6-dimethylphenyl)urea], the response vs control in vivo at 0.001 % was determined as 56% under setting [1] and 61% under setting [2].
As to `CCCCCCCN(Cc1ccc(CCC(C)CC)cc1)C(=O)Nc1c(F)cc(F)cc1F` (stereo not drawn) [1-(n-Heptyl)-1-[4-(3-methylpentyl)benzyl]-3-(2,4,6-trifluorophenyl)urea], the response vs control in vivo at 0.003 % stood at 46% under setting [3] and 36% under setting [4].
For `CCCCCCCN(Cc1ccc(C(C)CCCC(C)C)cc1)C(=O)Nc1ccc(F)cc1F` (stereo not drawn) [1-(n-Heptyl)-1-[4-(1,5-dimethylhexyl)benzyl]-3-(2,4-difluorophenyl)urea], the response vs control in vivo at 0.001 % came out at 88% under setting [1] and 83% under setting [2].
Take `CCCCCCCN(Cc1ccc(CC(CC)CC)cc1)C(=O)Nc1ccc(F)cc1F` [1-(n-Heptyl)-1-[4-(2-ethylbutyl)benzyl]-3-(2,4-difluorophenyl)urea]: the response vs control in vivo at 0.003 % was found to be 98% under setting [3] and 66% under setting [4].
With `CCCCCCCN(Cc1ccc(OCCC(C)C)cc1)C(=O)Nc1ccc(F)cc1F` [1-(n-Heptyl)-1-[4-(3-methylbutoxy)benzyl]-3-(2,4-difluorophenyl)urea], the response vs control in vivo at 0.01 % is, setting by setting: under setting [1], 32%; under setting [2], 27%.
On to `CCCCCCCN(Cc1ccc(CCC(C)CC)cc1)C(=O)Nc1ccc(F)cc1F` (stereo not drawn) [1-(n-Heptyl)-1-[4-(3-methylpentyl)benzyl]-3-(2,4-difluorophenyl)urea], for which the response vs control in vivo at 0.001 % is 89% under setting [1] and 72% under setting [2].
Turning to `CCCCCCCN(Cc1ccc(CC2CCC2)cc1)C(=O)Nc1c(F)cc(F)cc1F` [1-(n-Heptyl)-1-[4-(cyclobutylmethyl)benzyl]-3-(2,4,6-trifluorophenyl)urea], the response vs control in vivo at 0.001 % runs as follows: under setting [1], 66%; under setting [2], 62%.
The matching figures for `CCCCCCCN(Cc1ccc(CC(CC)CC)cc1)C(=O)Nc1c(F)cc(F)cc1F` [1-(n-Heptyl)-1-[4-(2-ethylbutyl)benzyl)-3-(2,4,6-trifluorophenyl)urea]: 75% and 120%.
Regarding `CCCCCCCN(Cc1ccc(CC(C)CCC)cc1)C(=O)Nc1c(F)cc(F)cc1F` (stereo not drawn) [1-(n-Heptyl)-1-[4-(2-methylpentyl)benzyl]-3-(2,4,6-trifluorophenyl)urea], the response vs control in vivo at 0.001 % came to 75% under setting [1] and 93% under setting [2].
Regarding `CCCCCCCN(Cc1ccc(CC2CCC2)cc1)C(=O)Nc1c(C)cc(Cl)cc1C` [1-(n-Heptyl)-1-[4-(cyclobutylmethyl)benzyl]-3-(4-chloro-2,6-dimethylphenyl)urea], the response vs control in vivo at 0.001 % runs as follows: under setting [1], 69%; under setting [2], 64%.
For the compound `CCCCCCCN(Cc1ccc(C2CCCC2)cc1)C(=O)Nc1c(F)cc(F)cc1F` [1-(n-Heptyl)-1-[4-(cyclopentyl)benzyl]-3-(2,4,6-trifluorophenyl)urea], the response vs control in vivo at 0.001 % under setting [1] was 58% and the response vs control in vivo at 0.001 % under setting [2] was 69%.
The matching figures for `CCCCCCCN(Cc1ccc(OCCC(C)C)cc1)C(=O)Nc1ccc(F)cc1F` [1-(n-Heptyl)-1-[4-(isopentyloxy)benzyl]-3-(2,4-difluorophenyl)urea]: 61% and 69%.
The matching figures for `CCCCCCCN(Cc1ccc(CCCC(C)C)cc1)C(=O)Nc1c(C)cc(Cl)cc1C` [1-(n-Heptyl)-1-[4-(isohexyl)benzyl]-3-(4-chloro-2,6-dimethylphenyl)urea]: 73% and 64%.
